Legend:
Assay in all cases: combination Emax (second highest fraction inhibited in the dose matrix, 72 h); higher = more inhibition; extreme values may be limits of the assay
[1] = tested on: CHP-212 (Neuroblastoma)
Procedure, shortened: (§1)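 Bliss excess equals the observed combination effect minus the expected value EA + EB − EA·EB, where EA and EB are the effects of each agent alone. Combination Emax is the second-highest inhibition within the matrix. Inhibition was scaled from CellTiter-Glo 2.0 luminescence, with 0 set by vehicle wells and 1 by blank wells, after 72 hours of two-drug dosing of cells plated in 1536-well plates.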

[2] = tested on: DiFi (Colorectal Carcinoma)
Procedure, shortened: as §1

[3] = tested on: ES1 (Ewing's Sarcoma)
Procedure, shortened: as §1

[4] = tested on: ES8 (Ewing's Sarcoma)
Procedure, shortened: as §1

[5] = tested on: GR-ST (B-Lymphoblastic Leukemia)
Procedure, shortened: as §1

[6] = tested on: HDQ-P1 (Breast Carcinoma)
Procedure, shortened: as §1

[7] = tested on: HL-60 (Acute Myeloid Leukemia)
Procedure, shortened: as §1

[8] = tested on: K-562 (Chronic Myelogenous Leukemia)
Procedure, shortened: as §1

[9] = tested on: KARPAS-45 (T-Lymphoblastic Leukemia)
Procedure, shortened: as §1

[10] = tested on: KM12 (Colorectal Carcinoma)
Procedure, shortened: as §1

[11] = tested on: L-540 (Hodgkin's Lymphoma)
Procedure, shortened: as §1

[12] = tested on: MFM-223 (Breast Carcinoma)
Procedure, shortened: as §1

[13] = tested on: MOLT-16 (T-Lymphoblastic Leukemia)
Procedure, shortened: as §1

[14] = tested on: P12-ICHIKAWA (T-Lymphoblastic Leukemia)
Procedure, shortened: as §1

[15] = tested on: SR (Other Blood Carcinomas)
Procedure, shortened: as §1

[16] = tested on: SU-DHL-8 (B-Cell Non-Hodgkin's Lymphoma)
Procedure, shortened: as §1

[17] = tested on: SW1417 (Colorectal Carcinoma)
Procedure, shortened: as §1

[18] = tested on: TE-6 (Esophageal Squamous Cell Carcinoma)
Procedure, shortened: as §1

[19] = tested on: TOV-112D (Ovarian Carcinoma)
Procedure, shortened: as §1

[20] = tested on: WIL2-NS (Non-Cancerous)
Procedure, shortened: as §1

SMILES | combination Emax [1] | combination Emax [2] | combination Emax [3] | combination Emax [4] | combination Emax [5] | combination Emax [6] | combination Emax [7] | combination Emax [8] | combination Emax [9] | combination Emax [10] | combination Emax [11] | combination Emax [12] | combination Emax [13] | combination Emax [14] | combination Emax [15] | combination Emax [16] | combination Emax [17] | combination Emax [18] | combination Emax [19] | combination Emax [20]
Cc1c2c(nn1C)CSCc1cc(n(C)n1)CSc1cc(c3ccccc3c1)OCCCc1c(C(=O)O)n(C)c3c-2c(Cl)ccc13 [AZD5991] + CCN(CCO)CCCOc1ccc2c(Nc3cc(CC(=O)Nc4cccc(F)c4)[nH]n3)ncnc2c1 [AZD2811] (first compound max 1 µM, 7x7, partner max 1 µM) | 0.86 | 0.859 | 0.983 | 1 | 0.336 | 0.159 | 1 | 0.43 | 1 | 0.249 | 1 | 0.574 | 1 | 1 | 0.988 | 0.931 | 0.23 | 0.715 | 0.868 | 0.339
CC(=O)c1c(C)c2cnc(Nc3ccc(N4CCNCC4)cn3)nc2n(C2CCCC2)c1=O [Palbociclib] + Cn1cnc2c(F)c(Nc3ccc(Br)cc3Cl)c(C(=O)NOCCO)cc21 [Selumetinib] (first compound max 10 µM, 7x7, partner max 10 µM) | 0.979 | 0.751 | 0.616 | 0.823 | 0.726 | 0.289 | 0.667 | 0.237 | 0.964 | 0.768 | 0.25 | 0.317 | 0.827 | 0.77 | 0.873 | 0.32 | 0.512 | 0.425 | 0.473 | 0.74
CN(CCO)CC[C@H](CSc1ccccc1)Nc1ccc(S(=O)(=O)NC(=O)c2ccc(N3CCC([C@@H](O)c4ccccc4-c4ccc(Cl)cc4)CC3)cc2)cc1S(=O)(=O)C(F)(F)F [AZD4320] + CCN(CCO)CCCOc1ccc2c(Nc3cc(CC(=O)Nc4cccc(F)c4)[nH]n3)ncnc2c1 [AZD2811] (first compound max 1 µM, 7x7, partner max 1 µM) | 0.758 | 0.882 | 0.613 | 1 | 0.151 | 0.849 | 0.958 | 0.333 | 1 | 0.173 | 0.594 | 0.693 | 1 | 1 | 0.938 | 1 | 0.759 | 0.524 | 0.485 | 0.311
COc1nnc2ccc(N3CCC(c4ccc(OCCN5CCN(C)C(=O)[C@H]5C)cc4)CC3)nn12 [AZD5153] + Cn1cnc2c(F)c(Nc3ccc(Br)cc3Cl)c(C(=O)NOCCO)cc21 [Selumetinib] (first compound max 1 µM, 7x7, partner max 10 µM) | 0.989 | 0.962 | 0.458 | 0.681 | 0.782 | 0.431 | 0.966 | 0.469 | 1 | 0.786 | 0.628 | 0.507 | 0.949 | 0.99 | 0.675 | 0.955 | 0.778 | 0.711 | 0.684 | 0.881
CC(=O)c1c(C)c2cnc(Nc3ccc(N4CCNCC4)cn3)nc2n(C2CCCC2)c1=O [Palbociclib] + CC1(C)CCC(CN2CCN(c3ccc(C(=O)NS(=O)(=O)c4ccc(NCC5CCOCC5)c([N+](=O)[O-])c4)c(Oc4cnc5[nH]ccc5c4)c3)CC2)=C(c2ccc(Cl)cc2)C1 [Venetoclax] (first compound max 10 µM, 7x7, partner max 1 µM) | 0.481 | 0.47 | 0.56 | 0.461 | 0.715 | 0.109 | 0.736 | 0.0413 | 1 | 0.683 | 0.257 | 0.346 | 0.985 | 0.671 | 0.94 | 0.37 | 0.147 | 0.264 | 0.443 | 0.727
COc1cccc(OCCCN)c1-c1cc(Nc2cnc(C#N)cn2)n[nH]1 [Prexasertib] + CCc1c2c(nc3ccc(O)cc13)-c1cc3c(c(=O)n1C2)COC(=O)[C@]3(O)CC [SN-38] (first compound max 1 µM, 7x7, partner max 0.3 µM) | 0.827 | 0.931 | 1 | 0.989 | 0.871 | 0.944 | 0.982 | 0.983 | 1 | 0.939 | 0.95 | 0.881 | 1 | 1 | 0.998 | 1 | 0.856 | 0.884 | 0.987 | 1
Cc1nc(Nc2ncc(C(=O)Nc3c(C)cccc3Cl)s2)cc(N2CCN(CCO)CC2)n1 [Dasatinib] + CC(=O)Nc1cccc(-n2c(=O)n(C3CC3)c(=O)c3c(Nc4ccc(I)cc4F)n(C)c(=O)c(C)c32)c1 [Trametinib] (first compound max 2 µM, 7x7, partner max 1 µM) | 1 | 0.784 | 0.0713 | 0.223 | 0.361 | 0.958 | 0.703 | 0.747 | 0.592 | 0.714 | 0.148 | 0.561 | 0.326 | 0.517 | 0.245 | 0.0526 | 0.834 | 0.535 | 0.749 | 0.721
C[C@@H](c1ccc2nccn2c1)n1nnc2ncc(-c3cnn(C)c3)nc21 [Savolitinib] + Cc1c2c(nn1C)CSCc1cc(n(C)n1)CSc1cc(c3ccccc3c1)OCCCc1c(C(=O)O)n(C)c3c-2c(Cl)ccc13 [AZD5991] (first compound max 1 µM, 7x7, partner max 1 µM) | 0.787 | 0.257 | 0.743 | 0.292 | 0.145 | 0.2 | 1 | 0.159 | 0.882 | 0.159 | 0.975 | 0.244 | 1 | 0.29 | 0.772 | 0.697 | 0.161 | 0.308 | 0.395 | 0.0914
CC1(C)CCC(CN2CCN(c3ccc(C(=O)NS(=O)(=O)c4ccc(NCC5CCOCC5)c([N+](=O)[O-])c4)c(Oc4cnc5[nH]ccc5c4)c3)CC2)=C(c2ccc(Cl)cc2)C1 [Venetoclax] + CN(C)CCCOc1ccc(-c2ccc3ncc4c(c3c2)n(C2CCOCC2)c(=O)n4C)cn1 [AZD0156] (first compound max 1 µM, 7x7, partner max 1 µM) | 0.17 | 0.288 | 0.82 | 0.869 | 0.704 | 0.139 | 0.71 | 0.374 | 0.478 | 0.17 | 0.886 | 0.155 | 0.699 | 0.224 | 0.907 | 0.334 | 0.266 | 0.289 | 0.131 | 0.804
CC1(C)CCC(CN2CCN(c3ccc(C(=O)NS(=O)(=O)c4ccc(NCC5CCOCC5)c([N+](=O)[O-])c4)c(Oc4cnc5[nH]ccc5c4)c3)CC2)=C(c2ccc(Cl)cc2)C1 [Venetoclax] + COc1cc(Nc2ncc3c(n2)-c2ccc(Cl)cc2C(c2c(F)cccc2OC)=NC3)ccc1C(=O)O [Alisertib] (first compound max 1 µM, 7x7, partner max 10 µM) | 0.855 | 0.559 | 0.842 | 0.962 | 0.631 | 0.41 | 0.923 | 0.693 | 0.982 | 0.598 | 0.89 | 0.849 | 1 | 0.953 | 0.966 | 0.83 | 0.235 | 0.527 | 0.684 | 0.825
COc1nnc2ccc(N3CCC(c4ccc(OCCN5CCN(C)C(=O)[C@H]5C)cc4)CC3)nn12 [AZD5153] + CC1(C)CCC(CN2CCN(c3ccc(C(=O)NS(=O)(=O)c4ccc(NCC5CCOCC5)c([N+](=O)[O-])c4)c(Oc4cnc5[nH]ccc5c4)c3)CC2)=C(c2ccc(Cl)cc2)C1 [Venetoclax] (first compound max 1 µM, 7x7, partner max 1 µM) | 0.885 | 0.586 | 0.482 | 0.719 | 0.788 | 0.325 | 0.99 | 0.437 | 1 | 0.643 | 0.755 | 0.305 | 1 | 0.932 | 0.749 | 0.663 | 0.463 | 0.572 | 0.588 | 0.807
Cc1c2c(nn1C)CSCc1cc(n(C)n1)CSc1cc(c3ccccc3c1)OCCCc1c(C(=O)O)n(C)c3c-2c(Cl)ccc13 [AZD5991] + Cn1cnc2c(F)c(Nc3ccc(Br)cc3Cl)c(C(=O)NOCCO)cc21 [Selumetinib] (first compound max 1 µM, 7x7, partner max 3 µM) | 0.944 | 0.875 | 0.777 | 0.521 | 0.0688 | 0.211 | 1 | 0.416 | 0.922 | 0.638 | 1 | 0.282 | 1 | 1 | 0.952 | 0.655 | 0.527 | 0.62 | 0.414 | 0.236
